# pEC50, pIC50: −log10 of the molar value.
# How the values were obtained:
# [1] = target: Matrix protein 2 (Influenza A virus (A/Udorn/307/1972(H3N2)), UniProt P0DOF8); assay: Inhibition of Influenza A virus wild type M2 proton channel infected in Xenopus laevis oocytes after 2 mins by TEVC assay; format: cell-based
# MDCK = assay: Cytotoxicity against MDCK cells assessed as cell viability after 72 hrs by MTT assay; format: cell-based, Canis lupus familiaris; settings: dog
# Influenza A virus = assay: Antiviral activity against Influenza A virus A/udorn/72(H3N2) expressing wild type M2 proton channel infected in MDCK cells assessed as reduction in plaque formation preincubated for 30 mins followed by infection measured on day 2 post infection by naphthalene black dye-based assay; format: functional, organism-based, Influenza A virus (A/udorn/1972(H3N2))
# Sequence of Matrix protein 2 (Influenza A virus (A/Udorn/307/1972(H3N2)), UniProt P0DOF8) (P0DOF8 whole entry): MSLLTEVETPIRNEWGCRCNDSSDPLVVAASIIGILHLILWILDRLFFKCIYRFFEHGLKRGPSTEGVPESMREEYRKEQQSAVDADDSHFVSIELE
Compound,CC50 (MDCK),also measured
C1CCC2(CC1)CCNCC2,,pIC50 [1]: 6.05
OC1C2CC3CC1CC(NCc1cc(-c4cccs4)on1)(C3)C2 (configuration not stated),116 µM,
c1csc(-c2cc(NC34CC5CC(CC(C5)C3)C4)no2)c1,100 µM,
c1csc(-c2ncc(CNC34CC5CC(CC(C5)C3)C4)s2)c1,113 µM,
c1csc(-c2nnc(CNC34CC5CC(CC(C5)C3)C4)s2)c1,> 200 µM,
OC12CC3CC(O)(C1)CC(NCc1cc(-c4cccs4)on1)(C3)C2,> 200 µM,
NC12CC3CC(CC(C3)C1)C2 [AMANTADINE],,pEC50 (Influenza A virus): 6.52

# — ChEMBL document CHEMBL3769344 (J Med Chem, 2016)
